Data published in patent US8247211B2, “Glycopeptide antibiotics” (American Cyanamid Company, priority 2001, dated 2012).
Values after ≈ are worked out from the molar mass of the structure shown.

Key:
Assay in all cases: In vitro antibacterial evaluation: minimum inhibitory concentration (MIC), broth dilution method
Assay type in all cases: cell-based
Conditions in all cases: 18 hours at 35° C.
Escherichia coli = system: Escherichia coli
In short: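 Susceptibility determined by NCCLS-recommended broth dilution (M7-A2), Muller-Hinton II […]. Concentration span 64-0.06 μg/mL, inoculum 5×10^5 CFU/mL. Isolates include strains resistant to methicillin, penicillin and/or vancomycin.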

Streptococcus sp. = system: Streptococcus sp.
In short: (§1)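 Test strains, among them recent clinical isolates carrying methicillin, penicillin and/or vancomycin resistance, were inoculated at 5×10^5 CFU/mL. A broth dilution series spanning 64-0.06 μg/mL in Muller-Hinton II […] (NCCLS M7-A2) defined the MIC as the lowest growth-inhibiting concentration.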

Staphylococcus sp. = system: Staphylococcus sp.
In short: as §1

Enterococcus sp. = system: Enterococcus sp.
In short: as §1

[1] = broth dilution, inoculum 5×10^5 CFU/mL

COc1ccc(COC2C(CO)OC(OC3C(CO)OC(Oc4ccc(CC5NC(=O)C(C(C)c6ccccc6)NC(=O)CNC(=O)C(CO)NC(=O)C(C(O)C6CNC(=N)N6C6OC(CO)C(O)C(O)C6O)NC(=O)C(C(O)C6CNC(=N)N6)NC5=O)cc4)C(O)C3O)C(O)C2O)cc1OCc1ccccc1 (stereo not drawn) [Example 239a, Cyclo[glycyl-β-methylphenylalanyl-O-[4-O-[4-O-[4-methoxy-3-(phenylmethoxy)benzyl]-hexopyranosyl]hexopyranosyl]tyrosyl-3-(2-iminoimidazolidin-4-yl)seryl-3-(3-hexopyranosyl-2-iminoimidazolidin-4-yl)serylseryl]]
MIC Escherichia coli (ATCC 25922) (Escherichia coli; Escherichia coli (ATCC 25922)): >64 µg/mL | MIC Escherichia coli (GC 4559) (Escherichia coli; Escherichia coli (GC 4559)): >64 µg/mL | MIC Escherichia coli (GC 4560) (Escherichia coli; Escherichia coli (GC 4560)): 2 µg/mL (≈ 1.31 µM) | MIC Streptococcus agalactiae (GC 4564) (Streptococcus sp.; Streptococcus agalactiae (GC 4564)): 1 µg/mL (≈ 0.657 µM) | MIC Streptococcus pneumoniae (ATCC 6301) (Streptococcus sp.; Streptococcus pneumoniae (ATCC 6301)): 0.25 µg/mL (≈ 0.164 µM) | MIC Streptococcus pneumoniae (GC 1894) (Streptococcus sp.; Streptococcus pneumoniae (GC 1894)): <0.06 µg/mL | MIC Streptococcus pneumoniae (GC 4565) (Streptococcus sp.; Streptococcus pneumoniae (GC 4565)): 0.25 µg/mL (≈ 0.164 µM) | MIC Streptococcus pyogenes (GC 4563) (Streptococcus sp.; Streptococcus pyogenes (GC 4563)): 2 µg/mL (≈ 1.31 µM) | MIC Streptococcus agalactiae (GC 4564) (Streptococcus sp.; [1]): 1 µg/mL (≈ 0.657 µM) | MIC Streptococcus pneumoniae (ATCC 6301) (Streptococcus sp.; [1]): 0.25 µg/mL (≈ 0.164 µM) | MIC Streptococcus pneumoniae (GC 1894) (Streptococcus sp.; [1]): <0.06 µg/mL | MIC Streptococcus pneumoniae (GC 4565) (Streptococcus sp.; [1]): 0.25 µg/mL (≈ 0.164 µM) | MIC Streptococcus pyogenes (GC 4563) (Streptococcus sp.; [1]): 2 µg/mL (≈ 1.31 µM) | MIC Coagulase Negative Staphylococcus (GC 4547) (Staphylococcus sp.; Coagulase Negative Staphylococcus (GC 4547)): 2 µg/mL (≈ 1.31 µM) | MIC Coagulase Negative Staphylococcus (GC 4548) (Staphylococcus sp.; Coagulase Negative Staphylococcus (GC 4548)): 1 µg/mL (≈ 0.657 µM) | MIC Coagulase Negative Staphylococcus (GC 4549) (Staphylococcus sp.; Coagulase Negative Staphylococcus (GC 4549)): 2 µg/mL (≈ 1.31 µM) | MIC Coagulase Negative Staphylococcus (GC 4551) (Staphylococcus sp.; Coagulase Negative Staphylococcus (GC 4551)): 2 µg/mL (≈ 1.31 µM) | MIC Coagulase Negative Staphylococcus (GC 6257) (Staphylococcus sp.; Coagulase Negative Staphylococcus (GC 6257)): 2 µg/mL (≈ 1.31 µM) | MIC Staphylococcus aureus (ATCC 29213) (Staphylococcus sp.; Staphylococcus aureus (ATCC 29213)): 4 µg/mL (≈ 2.63 µM) | MIC Staphylococcus aureus (GC 1131) (Staphylococcus sp.; Staphylococcus aureus (GC 1131)): 4 µg/mL (≈ 2.63 µM) | MIC Staphylococcus aureus (GC 3051) (Staphylococcus sp.; Staphylococcus aureus (GC 3051)): 2 µg/mL (≈ 1.31 µM) | MIC Staphylococcus aureus (GC 3053) (Staphylococcus sp.; Staphylococcus aureus (GC 3053)): 4 µg/mL (≈ 2.63 µM) | MIC Staphylococcus aureus (GC 4541) (Staphylococcus sp.; Staphylococcus aureus (GC 4541)): 4 µg/mL (≈ 2.63 µM) | MIC Staphylococcus aureus (GC 4542) (Staphylococcus sp.; Staphylococcus aureus (GC 4542)): 4 µg/mL (≈ 2.63 µM) | MIC Staphylococcus aureus (GC 4544) (Staphylococcus sp.; Staphylococcus aureus (GC 4544)): 4 µg/mL (≈ 2.63 µM) | MIC Staphylococcus aureus (GC 4545) (Staphylococcus sp.; Staphylococcus aureus (GC 4545)): 4 µg/mL (≈ 2.63 µM) | MIC Staphylococcus aureus-SMITH (GC 4543) (Staphylococcus sp.; Staphylococcus aureus-SMITH (GC 4543)): 2 µg/mL (≈ 1.31 µM) | MIC Staphylococcus haemolyticus (GC 4546) (Staphylococcus sp.; Staphylococcus haemolyticus (GC 4546)): 2 µg/mL (≈ 1.31 µM) | MIC Enterococcus avium (GC 4558) (Enterococcus sp.; Enterococcus avium (GC 4558)): 8 µg/mL (≈ 5.26 µM) | MIC Enterococcus faecalis (ATCC 29212) (Enterococcus sp.; Enterococcus faecalis (ATCC 29212)): 8 µg/mL (≈ 5.26 µM) | MIC Enterococcus faecalis (GC 2242) (Enterococcus sp.; Enterococcus faecalis (GC 2242)): 8 µg/mL (≈ 5.26 µM) | MIC Enterococcus faecalis (GC 2691) (Enterococcus sp.; Enterococcus faecalis (GC 2691)): 8 µg/mL (≈ 5.26 µM) | MIC Enterococcus faecalis (GC 3059) (Enterococcus sp.; Enterococcus faecalis (GC 3059)): 8 µg/mL (≈ 5.26 µM) | MIC Enterococcus faecalis (GC 4552) (Enterococcus sp.; Enterococcus faecalis (GC 4552)): 8 µg/mL (≈ 5.26 µM) | MIC Enterococcus faecalis (GC 4553) (Enterococcus sp.; Enterococcus faecalis (GC 4553)): 8 µg/mL (≈ 5.26 µM) | MIC Enterococcus faecalis (GC 4554) (Enterococcus sp.; Enterococcus faecalis (GC 4554)): 16 µg/mL (≈ 10.5 µM) | MIC Enterococcus faecalis (GC 6189) (Enterococcus sp.; Enterococcus faecalis (GC 6189)): 8 µg/mL (≈ 5.26 µM) | MIC Enterococcus faecium (GC 2243) (Enterococcus sp.; Enterococcus faecium (GC 2243)): 8 µg/mL (≈ 5.26 µM) | MIC Enterococcus faecium (GC 4556) (Enterococcus sp.; Enterococcus faecium (GC 4556)): 8 µg/mL (≈ 5.26 µM) | MIC Enterococcus faecium (GC 4557) (Enterococcus sp.; Enterococcus faecium (GC 4557)): 4 µg/mL (≈ 2.63 µM) | MIC Enterococcus faecalis (GC 2242) (Enterococcus sp.; [1]): 8 µg/mL (≈ 5.26 µM) | MIC Enterococcus faecalis (GC 2691) (Enterococcus sp.; [1]): 8 µg/mL (≈ 5.26 µM) | MIC Enterococcus faecalis (GC 3059) (Enterococcus sp.; [1]): 8 µg/mL (≈ 5.26 µM)
